Results from US20260184706A1, “PHENYLSULFONAMIDE DERIVATIVES, PREPARATION METHOD THEREFOR, AND PHARMACEUTICAL COMPOSITION FOR PREVENTION OR TREATMENT OF CANCER CONTAINING SAME AS ACTIVE INGREDIENT” (Korea Research Institute of Chemical Technology, priority 2022, published 2026).

How the values were obtained:
[1] = molecular target: recombinant human GCN2 protein (Homo sapiens, UniProt Q9P2K8); assay: General control nonderepressible 2 (GCN2) inhibitory capacity, 33P-ATP filter assay; assay type: biochemical; conditions: recombinant human GCN2, 70 uM [gamma-33P-ATP], 40 minutes, room temperature
Method: <Experimental Example 2> Evaluation of General Control Nonderepressible 2 (GCN2) Inhibitory Capacity
(§1) A recombinant human GCN2 protein was mixed with the compound in a reaction solution (20 mM Tris/HCl pH8.5, 0.2 mM EDTA, 0.1% Tween, 100 mM NaCl, 300 μM RSRSRSRSRSRSRSR, 10 mM Magnesium acetate, 70 uM [gamma-33P-ATP]) and reacted at room temperature for 40 minutes. Then, the reaction was terminated by adding phosphoric acid (0.5%) to the reaction mixture, and 10 ul of the reaction solution was dropped onto a P30 filter. The filter was washed four times in a 0.425% phosphoric acid solution for 4 minutes, then washed once more in methanol, dried, and the GCN2 activity was measured by scintillation counting. […] The compound was diluted by 1/3 from the highest concentration of 1 uM and treated with a total of 9 concentrations to evaluate the degree of inhibition.

phosphorylated GCN2 = molecular target: T1, phosphorylated GCN2 (Homo sapiens, UniProt Q9P2K8); assay: Inhibition of phosphorylated GCN2 under amino acid deficiency in HT-1080 cells, Western blot; assay type: cell-based; conditions: compound 50 nM, 24 hours; for Phospho-GCN2 inhibition: symbols ◯ / X not defined
T1 construct: endogenous in cells; host or cells: HT-1080
Method: <Experimental Example 5> Evaluation of Inhibitory Efficacy of ISR-Related Kinase GCN2 Under Amino Acid Deficiency Condition Using Western Blot
HT-1080 cells, a human fibrosarcoma cell line, were cultured in RPMI-1640 medium supplemented with 10% FBS, penicillin (penicillin; 100 IU/ml), and streptomycin (streptomycin; 100 μg/ml). Cells (1×10^6 cells/ml) were seeded onto 100 mm plates (polypropylene tissue culture plate) and incubated for 24 hours in a 37° C., 5% CO2 incubator before being used for experiments.
The following method was used to achieve amino acid deficiency conditions in cells. After 24 hours of cell culture, the cells were cultured in amino acids and L-glutamine-free RPMI-1640 medium supplemented with 10% FBS, penicillin (100 IU/ml), and streptomycin (100 μg/ml). After 24 hours of cell culture in RPMI-1640 without amino acids and L-glutamine, the compound prepared at a concentration of 50 nM was dispensed onto each plate and cultured for 24 hours in a 37° C., 5% CO2 incubator.
In order to measure the signal transduction inhibitory efficacy of GCN among the ISR-related kinases according to the present invention, the following experiment was performed using SDS-PAGE. The fibrosarcoma cell line HT-1080 cells cultured on plates as described above were washed with PBS after removing the culture medium. After removing PBS, the cells were lysed by adding a radio-immunoprecipitation assay buffer (RIPA buffer) containing 50 mM Tris (pH 7.4), 150 mM NaCl, 1% NP-40, 0.5% sodium deoxycholate, 2 mM sodium fluoride, 2 mM EDTA, 0.1% SDS, and a protease/phosphatase inhibitor cocktail to the plate. After centrifugation at 4° C., 13,000×g for 15 minutes, the protein in the upper layer was collected, and the protein concentration was measured at 562 nm using BCA (bicinchoninc acid) reagent, and the amount of protein in all samples was prepared at 20-50 μg.
After making the total volume the same using the sample buffer and RIPA buffer, it was heated at 97° C. for 5 minutes. Then, electrophoresis was performed on 8% or 12% SDS-PAGE at 80 V for 30 minutes and at 160 V for 1 hour and 30 minutes. After electrophoresis, the SDS-PAGE gel was transferred to an NC membrane (nitrocellulose membrane) at 90 V for 2 hours. The NC membrane was placed in TBST (tris buffer saline tween-20; 20 mM tris, 137 mM sodium chloride, 0.1% tween-20, pH 8.0) containing 5% non-fat skim milk, placed on a shaker, and reacted at room temperature for 1 hour.
Each primary antibody was diluted in TBST containing 5% non-fat skim milk, poured onto the NC membrane, and reacted at 4° C. for 24 hours. The membrane was washed three times for 10 minutes each with TBST. The secondary antibodies (anti-rabbit IgG and anti-mouse IgG labeled with horseradish peroxidase (HRP)) were diluted in TBST containing 5% non-fat skim milk and reacted with the membrane at room temperature for 1 hour. Upon completion of the reaction, the membrane was washed three times with TBST for 10 minutes each. Protein expression bands were detected by a chemiluminescence image analyzer (Image Quant LAS 500) after the ECL solution was reacted with the NC membrane.
GCN2, a key kinase of the integrated stress response (ISR), is phosphorylated in response to amino acid deficiency.

[2] = molecular target: T2, recombinant human PERK protein (Homo sapiens, UniProt Q9NZJ5); assay: PKR-like endoplasmic reticulum kinase (PERK) inhibitory capacity, 33P-ATP filter assay; assay type: biochemical; conditions: 15 uM [gamma-33P-ATP], 40 minutes, room temperature
T2 sequence (Q9NZJ5 30-1116): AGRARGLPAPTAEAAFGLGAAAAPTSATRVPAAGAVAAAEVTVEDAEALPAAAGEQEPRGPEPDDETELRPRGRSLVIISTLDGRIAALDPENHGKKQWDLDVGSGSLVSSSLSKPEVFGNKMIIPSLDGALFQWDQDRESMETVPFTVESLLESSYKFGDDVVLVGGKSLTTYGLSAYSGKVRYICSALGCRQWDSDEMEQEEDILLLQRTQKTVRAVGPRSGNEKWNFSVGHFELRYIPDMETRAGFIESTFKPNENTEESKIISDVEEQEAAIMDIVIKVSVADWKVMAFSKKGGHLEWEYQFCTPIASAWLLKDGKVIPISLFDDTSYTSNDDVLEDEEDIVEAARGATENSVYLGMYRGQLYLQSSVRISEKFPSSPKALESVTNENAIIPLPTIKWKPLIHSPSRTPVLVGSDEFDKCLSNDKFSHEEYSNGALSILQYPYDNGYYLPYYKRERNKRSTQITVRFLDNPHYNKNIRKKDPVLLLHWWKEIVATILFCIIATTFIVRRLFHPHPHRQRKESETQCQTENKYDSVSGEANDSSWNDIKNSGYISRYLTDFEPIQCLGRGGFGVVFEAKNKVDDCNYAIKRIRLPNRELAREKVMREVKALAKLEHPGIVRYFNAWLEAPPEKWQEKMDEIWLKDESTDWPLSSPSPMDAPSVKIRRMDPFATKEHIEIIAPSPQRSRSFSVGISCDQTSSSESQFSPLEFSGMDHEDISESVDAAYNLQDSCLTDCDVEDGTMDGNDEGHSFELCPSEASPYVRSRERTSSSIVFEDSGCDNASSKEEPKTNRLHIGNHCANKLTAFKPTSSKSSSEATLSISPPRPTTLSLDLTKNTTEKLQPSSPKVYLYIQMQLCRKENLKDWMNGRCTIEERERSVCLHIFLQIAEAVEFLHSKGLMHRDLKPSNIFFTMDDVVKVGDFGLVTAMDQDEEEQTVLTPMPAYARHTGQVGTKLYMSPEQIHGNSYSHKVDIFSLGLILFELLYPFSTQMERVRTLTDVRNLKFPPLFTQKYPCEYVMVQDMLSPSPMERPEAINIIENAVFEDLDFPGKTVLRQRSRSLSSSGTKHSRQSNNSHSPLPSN
Method: <Experimental Example 1> Evaluation of PKR-Like Endoplasmic Reticulum Kinase (PERK) Inhibitory Capacity
as §1, with “PERK” for “GCN2”, “(8” for “(20”, “MOPS pH 7.0,” for “Tris/HCl pH8.5,”, “EDTA,” for “EDTA, 0.1% Tween, 100 mM NaCl,”, “uM” for “μM”, “15” for “70”

[3] = molecular target: recombinant human HRI protein (Homo sapiens, UniProt Q9BQI3); assay: eIF2-alpha kinase heme-regulated inhibitor (HRI) inhibitory capacity, 33P-ATP filter assay; assay type: biochemical; conditions: 45 uM [gamma-33P-ATP], 40 minutes, room temperature
Method: <Experimental Example 3> Evaluation of eIF2-Alpha Kinase Heme-Regulated Inhibitor (HRI) Inhibitory Capacity
A recombinant human HRI protein was mixed with the compound in a reaction solution (50 mM Tris/HCl pH 7.5, 0.04 mM EDTA, 300 uM RSRSRSRSRSRSRSR, 10 mM Magnesium acetate, 45 uM [gamma-33P-ATP]) and reacted at room temperature for 40 minutes. Then, the reaction was terminated by adding phosphoric acid (0.5%) to the reaction mixture, and […] of the reaction solution was dropped onto a P30 filter. The filter was washed four times in a 0.425% phosphoric acid solution for 4 minutes, then […] washed once more in methanol, dried, and the HRI activity was measured by scintillation counting. […] The compound was diluted by 1/3 from the highest concentration of 1 uM and treated with a total of 9 concentrations to evaluate the degree of inhibition.

[4] = molecular target: recombinant human PKR protein (Homo sapiens, UniProt P19525); assay: Protein kinase R (PKR) inhibitory capacity, 33P-ATP filter assay; assay type: biochemical; conditions: 15 uM [gamma-33P-ATP], 40 minutes, room temperature
Method: <Experimental Example 4> Evaluation of Protein Kinase R (PKR) Inhibitory Capacity
A recombinant human PKR protein was mixed with the compound in a reaction solution (8 mM MOPS pH 7.0, 0.2 mM EDTA, 20 uM RSRSRSRSRSRSRSR, 10 mM Magnesium acetate, 15 uM [gamma-33P-ATP]) and reacted at room temperature for 40 minutes. Then, the reaction was terminated by adding phosphoric acid (0.5%) to the reaction mixture, and 10 ul of the reaction solution was dropped onto a P30 filter. The filter was washed four times in a 0.425% phosphoric acid solution for 4 minutes, then washed once more in methanol, dried, and the PKR activity was measured by scintillation counting. […] The compound was diluted by 1/3 from the highest concentration of 1 uM and treated with a total of 9 concentrations to evaluate the degree of inhibition.

Sequence of recombinant human GCN2 protein (Q9P2K8 whole entry): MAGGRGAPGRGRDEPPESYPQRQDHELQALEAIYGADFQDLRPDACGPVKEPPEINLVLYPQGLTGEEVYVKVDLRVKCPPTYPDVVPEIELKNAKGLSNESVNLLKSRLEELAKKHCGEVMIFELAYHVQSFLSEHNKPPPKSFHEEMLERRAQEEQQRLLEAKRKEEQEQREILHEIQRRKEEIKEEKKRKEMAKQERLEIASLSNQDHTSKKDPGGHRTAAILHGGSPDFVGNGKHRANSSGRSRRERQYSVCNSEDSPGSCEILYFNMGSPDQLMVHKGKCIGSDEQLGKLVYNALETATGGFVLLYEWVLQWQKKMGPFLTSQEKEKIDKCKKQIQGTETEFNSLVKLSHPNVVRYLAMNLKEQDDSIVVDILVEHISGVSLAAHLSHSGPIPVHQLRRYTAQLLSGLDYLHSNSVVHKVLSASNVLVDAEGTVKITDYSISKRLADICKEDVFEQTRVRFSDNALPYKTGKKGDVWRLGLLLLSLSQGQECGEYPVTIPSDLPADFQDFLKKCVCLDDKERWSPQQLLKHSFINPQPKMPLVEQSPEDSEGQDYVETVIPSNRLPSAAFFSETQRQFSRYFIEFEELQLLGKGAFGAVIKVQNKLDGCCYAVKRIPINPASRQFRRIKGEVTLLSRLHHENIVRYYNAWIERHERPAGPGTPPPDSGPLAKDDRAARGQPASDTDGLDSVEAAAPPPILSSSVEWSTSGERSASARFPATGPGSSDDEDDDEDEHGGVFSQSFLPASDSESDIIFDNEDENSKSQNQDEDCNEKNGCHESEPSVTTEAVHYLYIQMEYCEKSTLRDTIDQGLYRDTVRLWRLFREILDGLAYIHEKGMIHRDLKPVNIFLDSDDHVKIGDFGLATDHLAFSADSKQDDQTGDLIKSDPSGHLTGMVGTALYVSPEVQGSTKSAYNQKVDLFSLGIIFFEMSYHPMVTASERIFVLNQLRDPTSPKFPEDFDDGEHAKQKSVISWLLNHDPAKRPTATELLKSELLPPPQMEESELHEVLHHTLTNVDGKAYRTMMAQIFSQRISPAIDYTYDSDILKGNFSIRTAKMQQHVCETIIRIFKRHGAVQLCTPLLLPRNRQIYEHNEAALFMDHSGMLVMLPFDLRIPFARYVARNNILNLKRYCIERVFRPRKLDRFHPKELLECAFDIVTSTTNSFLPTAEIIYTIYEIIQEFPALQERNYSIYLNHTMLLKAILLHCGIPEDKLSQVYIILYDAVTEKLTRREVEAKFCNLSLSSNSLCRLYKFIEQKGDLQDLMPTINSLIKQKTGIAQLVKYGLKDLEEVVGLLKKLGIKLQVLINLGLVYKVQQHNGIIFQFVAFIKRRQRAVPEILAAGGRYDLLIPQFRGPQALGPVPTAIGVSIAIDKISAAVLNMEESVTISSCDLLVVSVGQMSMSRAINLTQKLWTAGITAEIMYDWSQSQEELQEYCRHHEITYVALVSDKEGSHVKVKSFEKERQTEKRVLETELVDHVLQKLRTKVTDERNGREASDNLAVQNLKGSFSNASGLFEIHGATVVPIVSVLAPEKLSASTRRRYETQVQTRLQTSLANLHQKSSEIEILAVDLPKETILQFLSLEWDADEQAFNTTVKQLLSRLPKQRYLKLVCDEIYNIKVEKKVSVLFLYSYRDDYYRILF
T1 sequence (Q9P2K8 whole entry): as above
Sequence of recombinant human HRI protein (Q9BQI3 whole entry): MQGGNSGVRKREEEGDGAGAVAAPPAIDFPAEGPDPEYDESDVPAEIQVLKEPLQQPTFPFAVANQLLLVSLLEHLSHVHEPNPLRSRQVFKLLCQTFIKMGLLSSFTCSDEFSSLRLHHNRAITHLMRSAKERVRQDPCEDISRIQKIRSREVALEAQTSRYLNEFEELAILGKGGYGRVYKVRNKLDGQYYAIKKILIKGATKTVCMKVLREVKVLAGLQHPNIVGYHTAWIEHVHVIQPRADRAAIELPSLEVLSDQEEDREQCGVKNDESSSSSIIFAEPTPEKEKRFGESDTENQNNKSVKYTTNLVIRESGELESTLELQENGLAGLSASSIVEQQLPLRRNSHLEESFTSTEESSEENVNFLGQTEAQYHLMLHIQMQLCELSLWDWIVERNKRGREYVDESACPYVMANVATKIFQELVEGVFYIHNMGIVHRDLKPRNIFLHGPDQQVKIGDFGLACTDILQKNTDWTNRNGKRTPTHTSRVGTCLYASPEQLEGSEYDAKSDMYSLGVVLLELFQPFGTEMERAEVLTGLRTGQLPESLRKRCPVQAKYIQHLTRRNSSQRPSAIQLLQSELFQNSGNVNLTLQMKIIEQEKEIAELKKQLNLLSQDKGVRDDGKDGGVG
Sequence of recombinant human PKR protein (P19525 whole entry): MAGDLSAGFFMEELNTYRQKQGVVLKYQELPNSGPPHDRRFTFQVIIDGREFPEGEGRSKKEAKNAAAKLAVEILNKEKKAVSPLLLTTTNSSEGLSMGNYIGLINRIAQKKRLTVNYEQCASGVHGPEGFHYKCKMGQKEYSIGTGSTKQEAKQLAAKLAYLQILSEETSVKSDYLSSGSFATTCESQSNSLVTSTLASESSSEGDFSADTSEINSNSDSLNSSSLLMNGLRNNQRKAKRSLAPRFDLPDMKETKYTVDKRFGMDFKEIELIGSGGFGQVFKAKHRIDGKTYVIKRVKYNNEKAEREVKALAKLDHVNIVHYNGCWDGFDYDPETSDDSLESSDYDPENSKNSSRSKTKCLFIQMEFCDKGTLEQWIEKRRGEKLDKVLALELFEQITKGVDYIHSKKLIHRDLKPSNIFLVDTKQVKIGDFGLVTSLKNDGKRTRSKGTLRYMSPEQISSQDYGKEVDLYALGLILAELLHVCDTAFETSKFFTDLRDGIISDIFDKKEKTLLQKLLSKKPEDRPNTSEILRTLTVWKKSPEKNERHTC

| SMILES | IC50 [1] | inhibitory effect on the phosphorylated GCN2 (phosphorylated GCN2) | Phospho-GCN2 inhibition (phosphorylated GCN2) | IC50 [2] | IC50 [3] | IC50 [4] |
| --- | --- | --- | --- | --- | --- | --- |
| COc1ncc(Cl)cc1S(=O)(=O)Nc1ccc(F)c(-n2ccc3nc(N)ncc3c2=O)c1F [Example 26, N-(3-(2-amino-5-oxopirido[4,3-d]pyrimidin-6(5H)-yl)-2,4-difluorophenyl)-5-chloro-2-methoxypyridine-3-sulfonamide] | < 100 nM | excellent inhibitory effect | ◯ | – | – | – |
| COc1ncc(C#N)cc1S(=O)(=O)Nc1ccc(F)c(-n2ccc3nc(N)ncc3c2=O)c1F [Example 28, N-(3-(2-amino-5-oxopirido[4,3-d]pyrimidin-6(5H)-yl)-2,4-difluorophenyl)-5-cyano-2-methoxypyridine-3-sulfonamide] | < 100 nM | – | – | < 100 nM | 100 to 300 nM | > 1000 nM |
| Cc1nn(-c2c(F)ccc(NS(=O)(=O)c3c(Cl)nn(C)c3C)c2F)c(=O)c2cnc(N)nc12 [Example 36, N-(3-(2-amino-8-methyl-5-oxopyrimido[4,5-d]pyridazine-6(5H)-yl)-2,4-difluorophenyl)-3-chloro-1,5-dimethyl-1H-pyrazole-4-sulfonamide] | 100 to 300 nM | excellent inhibitory effect | – | – | – | – |
| COc1ncc(Cl)cc1S(=O)(=O)Nc1ccc(F)c(-n2nc(C)c3nc(N)ncc3c2=O)c1F [Example 38, N-(3-(2-amino-8-methyl-5-oxopyrimido[4,5-d]pyridazine-6(5H)-yl)-2,4-difluorophenyl)-5-chloro-2-methoxypyridine-3-sulfonamide] | 100 to 300 nM | – | ◯ | – | – | – |
| Cc1nn(C)c(C)c1S(=O)(=O)Nc1ccc(F)c(-n2c(=O)c3cnc(N)nc3n(C)c2=O)c1F [Example 48, N-(3-(7-amino-1-methyl-2,4-dioxo-1,4-dihydropyrimido[4,5-d]pyrimidin-3(2H)-yl)-2,4-difluorophenyl)-1,3,5-trimethyl-1H-pyrazole-4-sulfonamide] | 100 to 300 nM | – | ◯ | – | – | – |
| Nc1ncc2c(=O)n(-c3c(F)ccc(NS(=O)(=O)c4cc(Cl)ccc4Cl)c3F)c(=O)n(C3CC3)c2n1 [Example 63, N-(3-(7-amino-1-cyclopropyl-2,4-dioxo-1,4-dihydropyrimido[4,5-d]pyrimidin-3(2H)-yl)-2,4-difluorophenyl)-2,5-dichlorobenzenesulfonamide] | 300 to 1000 nM | excellent inhibitory effect | ◯ | – | – | – |
| Nc1ncc2c(=O)n(-c3c(F)ccc(NS(=O)(=O)c4cccc5ccccc45)c3F)c(=O)n(C3CC3)c2n1 [Example 64, N-(3-(7-amino-1-cyclopropyl-2,4-dioxo-1,4-dihydropyrimido[4,5-d]pyrimidin-3(2H)-yl)-2,4-difluorophenyl)naphthalene-1-sulfonamide] | 300 to 1000 nM | excellent inhibitory effect | ◯ | – | – | – |
| COc1ncc(Cl)cc1S(=O)(=O)Nc1ccc(F)c(-n2c(=O)c3cnc(N)nc3n(C3CC3)c2=O)c1F [Example 65, N-(3-(7-amino-1-cyclopropyl-2,4-dioxo-1,4-dihydropyrimido[4,5-d]pyrimidin-3(2H)-yl)-2,4-difluorophenyl)-5-chloro-2-methoxypyridine-3-sulfonamide] | 300 to 1000 nM | excellent inhibitory effect | ◯ | – | – | – |
